Measured values published in PMC8305076, “Comprehensive Evaluation of Biological Effects of Pentathiepins on Various Human Cancer Cell Lines and Insights into Their Mode of Action” (International Journal of Molecular Sciences, 2021).
Read-outs that look alike come from different tables or passages of the source.

Tests used:
[1] = test system: HAP-1, HAP-1.KO.GPx1, A2780, and Siso; assay: apoptosis (summary); type: cell-based, human; design: key: no impact (0); weak impact (+); strong impact (++); settings: summary grade
Protocol: As reported in our earlier publication, a representative pentathiepin was capable of inducing apoptosis in cancer cell lines. Here, we tested compounds 1–6 for their ability to trigger this particular modality of cell death in a subset of four cell lines: HAP-1, HAP-1.KO.GPx1, A2780, and Siso. A flow cytometric assay was performed, allowing us to discriminate between viable, early, and late apoptotic cells (representative dot plots can be found in Figure S47). FITC-labeled annexin V was used to assess the externalization of phosphatidyl serine as a hallmark of early apoptosis induction. The addition of propidium iodide (PI) enabled the detection of late apoptotic cells as it only permeates porous cell membranes and exerts fluorescence once bound to double-stranded DNA.
The annexin V-FITC/PI assay, which discriminates between viable, early, and late apoptotic cells within a sample population, was performed according to the manufacturer’s instructions (Miltenyi Biotec, Teterow, Germany). Briefly, 125,000 cells were seeded in 2 mL per well of a 6-well plate, allowed to adhere overnight, and subsequently treated with the respective pentathiepin (IC90, see Table S4) diluted in 3 mL of medium. After incubation periods of 6, 24, or 48 h, the cells were harvested, washed with the provided binding buffer, and stained with the annexin V-FITC reagent for 20 min at room temperature (RT) in the dark. After another washing step, the pellet was resuspended, and PI was added immediately before flow cytometric measurement at λEx/Em = 488/525 ± 50 nm for FITC and λEx/Em = 488/655–730 nm for PI with the MACSquant Analyzer 10 (Miltenyi Biotec, Teterow, Germany).

A2780cis = assay: MTT cell viability assay; type: cell-based; settings: Homo sapiens, 48 h
Protocol: (§1) Distinct MTT cell viability and crystal violet cell proliferation assays were performed to assess the cytotoxicity of the compounds 1–6 on 14 human cancer cell lines. In the viability assay, cells with intact mitochondria and thus active dehydrogenases are competent to convert MTT to the corresponding insoluble formazan. The formazan can be photometrically detected after solubilization and allows for indirect conclusions about the viability of the cells as an IC50 value. In the crystal violet assay, cells are stained by the binding of the dye to the chromatin, thus allowing for a quantification of biomass that remains adherent after a treatment in comparison with a control after a specific time. Potency is defined as the growth inhibitory concentration 50% (GI50).
(§2) In addition to performing the cell viability assay under normoxia (19% atmospheric oxygen), incubations were also conducted under hypoxic conditions, i.e., atmospheric oxygen levels of 1% during the treatment for 48 h. Hypoxia is a favorable condition of the tumor microenvironment that is connected with poor outcome. Therefore, the low oxygen condition mimics better the tumor environment. The biological effect of the pentathiepins under this condition provides insight into their dependency for oxygen, which has been postulated a key component in the proposed mechanism of action (Figure 3). Consistent with the proposed mechanism of action for five of the compounds, potency decreased under hypoxic conditions; in fact for 6, the half-maximal inhibitory concentration exceeded the highest tested concentration of 10 µM in four cell lines (Figure 6, Table S3). […] In contrast to the other compounds, in some cell lines, the cytotoxic effects of 1 were more pronounced under oxygen-reduced incubation conditions (Figure 6), indicating a tangential role of oxygen availability for this pentathiepin. Especially for the breast cancer cell line MCF-7, the cytotoxicity increased substantially, indicated by a decrease of the IC50 from >10.0 µM to about 1.0 µM.
(§3) The effect of the pentathiepins on the viability of the cell lines was assessed via an MTT assay, performed as previously described. Healthy and viable cells convert the yellow soluble 3-(4,5-dimethylthiazol-2-yl)-2,5-diphenyltetrazolium bromide to the insoluble purple corresponding formazan, which can be spectrophotometrically measured. For this assay, 5000 cells (1 250 for LCLC-103H) in 0.1 mL of medium were seeded per well of a 96-well plate and incubated at standard conditions for 24 h prior to treatment. A serial dilution of the test compounds was prepared in medium, covering final concentrations from 10.0 to 0.04 µM, and 0.1 mL of the working solution was added to each well in triplicate. After 48 h, 20 µL of a 2.5 mg/mL MTT in PBS solution was pipetted into each well and further incubated for 4 h at standard conditions. Thereafter, medium was replaced with 50 µL DMSO, and the plates were put on a shaker for 5 min and subsequently read at λ = 570 nm, with a SpectraMax 384plus (Molecular Devices, Sunnyvale, CA, USA). The cell viabilities of the treatment conditions were calculated in relation to a solvent control sample. The absolute IC50 was calculated via nonlinear regression followed by interpolation of the dose–response graphs in Prism 7 (GraphPad, San Diego, CA, USA). The IC90 was derived from the IC50 by using the slope factor of the dose–response graph with the tool QuickCalcs from GraphPad (GraphPad Software, San Diego, CA, USA).

DanG = assay: MTT cell viability assay; type: cell-based; settings: Homo sapiens; for IC50: 48 h; for IC90: calculated via GraphPad QuickCalcs from MTT IC50 and slope factor
Protocol: as §1, §2, §3

[2] = test system: HAP-1, HAP-1.KO.GPx1, A2780 and Siso; assay: adapted MTT assay with ferrostatin-1 (ferroptosis); type: cell-based, human; design: key: no impact (0); weak impact (+); strong impact (++); settings: summary grade
Protocol: Not only apoptosis may contribute to the mainly ROS-based cytotoxicity of the pentathiepins but also ferroptosis, which derives from iron-dependent oxidative damage of the cell membrane. This form of programmed cell death is initiated via lipid peroxidation, which is normally held in check by the membrane-bound GPx4, an isoform of GPx1. As pentathiepins are potent GPx1 inhibitors, we indirectly investigated the possible role of GPx4 inhibition by precluding ferroptosis. Here, cells were incubated with a serial dilution of the respective pentathiepin, and either ferrostatin-1 (Fer-1) or vehicle control (DMSO) was added; Fer-1 is an established inhibitor of ferroptosis. The cell viability was measured after 48 h, and the activity of the compounds after adding or omitting Fer-1 was compared (Figure S50).
This experiment was performed similarly to that described in the previous section. To assess the importance of ferroptosis for cell death, a co-incubation of the cells with a serial dilution of the pentathiepins and ferrostatin-1 (Fer-1) as a known inhibitor of ferroptosis was performed. As negative control, the cells were incubated with the serial dilution of the test compounds and an amount of DMSO corresponding to the Fer-1 treatment solution. If ferroptosis were to be involved in the cytotoxicity of the compounds, the addition of Fer-1 should protect cells from the treatment with pentathiepin. […] The IC50 values were calculated as described above, and Fer-1-treated cells were set in relation to those without the additive.
Figure S50: Relative IC 50 in the four human cancer cell lines HAP -1, HAP -1.KO.GPx1, A2780 and Siso after treatment with pentathiepins 1-6 with either vehicle control (DMSO) or 1.5 or 6.0 µM ferrostatin -1 (Fer -1), respectively, for 48 h. The IC 50 of Fer-1-treated cells were relat ed to DMSO-treated samples (set to 1, dashed line) […]
(1 picture or pasted object on this page, not shown here)

[3] = hypoxic (1% O2), read-out: IC50 MTT-H mean
[4] = normoxic (19% O2), read-out: IC50 MTT-N mean

Row | IC50 (A2780cis; [3]) [nM] | IC50 (A2780cis; [4]) [nM] | SMILES | Apoptosis [1] | IC50 (DanG; [3]) [nM] | IC50 (DanG; [4]) [nM] | IC90 (DanG) [nM] | Ferroptosis [2]
1 | 411 | 410 | CCOc1c2c(c3cnc4[nH]c(-c5ccc(OC)cc5)cc4n13)SSSSS2 [Compound 1, 11-Ethoxy-2-(4-methoxyphenyl)-3H-[1,2,3,4,5]pentathiepino[6′,7′:3,4]pyrrolo[1,2-a]pyrrolo[2,3-e]pyrazine] | + | 478 | 1110 | 1710 | 0
2 | 637 | 652 | CCOc1c2c(c3ccc(C(=O)N4CCCCC4)cn13)SSSSS2 [Compound 2, (6-Ethoxy-[1,2,3,4,5]pentathiepino[6,7-a]indolizin-9-yl)(piperidinyl)methanone] | + | 4350 | 1990 | 3060 | 0
3 | 316 | 206 | CCOc1c2c(c3ccc(C(=O)N4CCOCC4)cn13)SSSSS2 [Compound 3, (6-Ethoxy-[1,2,3,4,5]pentathiepino[6,7-a]indolizin-9-yl)(morpholino)methanone] | ++ | 2660 | 1450 | 2540 | 0
4 | 544 | 399 | CCOc1c2c(c3ccc(C(=O)N(CC)CC)cn13)SSSSS2 [Compound 4, 6-Ethoxy-N,N’-diethyl-[1,2,3,4,5]pentathiepino[6,7-a]indolizine-9-carboxamide] | + | 4460 | 1650 | 2710 | 0
5 | 449 | 308 | CCOc1c2c(c3ccc(C(=O)N4CCN(C(=O)c5ccc(F)cc5)CC4)cn13)SSSSS2 [Compound 5, (6-Ethoxy-[1,2,3,4,5]pentathiepino[6,7-a]indolizin-9-yl)(4-(4-fluorobenzoyl)piperazinyl)methanone] | ++ | 1620 | 1180 | 2050 | 0
6 | 1720 | 1510 | CCOc1c2c(c3ccc(C(=O)N4CCN(S(=O)(=O)c5ccc(C)cc5)CC4)cn13)SSSSS2 [Compound 6, (6-Ethoxy-[1,2,3,4,5]pentathiepino[6,7-a]indolizin-9-yl)(4-tosylpiperazinyl)methanone] | + | > 10000 | 2180 | 4940 | 0
